pIC50: −log10 of the molar value.
Each molecule was assayed against T1, human capsaicin receptor (Homo sapiens, UniProt Q8NER1) (assay: Calcium mobilization assay, determination of antagonist activity (Example 6)). Details: Table II; IC50 determined as described in Example 6.
T1 construct: pBK-CMV expression construct encoding the full length human capsaicin receptor; expressed in transfected cells
Format: cell-based
Summary of the method: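 HEK293 clonal lines stably expressing full-length human capsaicin receptor, loaded with Fluo-3 AM in KRH buffer pH 7.4, 1–2 h at 37 °C. Compounds (1–5 μM final) preincubated 0.5–6 h at room temperature, then capsaicin at its EC50 added. FLIPR/Fluoroskan calcium signal; IC50 as 50% decrease of capsaicin response.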

T1 sequence (Q8NER1 whole entry): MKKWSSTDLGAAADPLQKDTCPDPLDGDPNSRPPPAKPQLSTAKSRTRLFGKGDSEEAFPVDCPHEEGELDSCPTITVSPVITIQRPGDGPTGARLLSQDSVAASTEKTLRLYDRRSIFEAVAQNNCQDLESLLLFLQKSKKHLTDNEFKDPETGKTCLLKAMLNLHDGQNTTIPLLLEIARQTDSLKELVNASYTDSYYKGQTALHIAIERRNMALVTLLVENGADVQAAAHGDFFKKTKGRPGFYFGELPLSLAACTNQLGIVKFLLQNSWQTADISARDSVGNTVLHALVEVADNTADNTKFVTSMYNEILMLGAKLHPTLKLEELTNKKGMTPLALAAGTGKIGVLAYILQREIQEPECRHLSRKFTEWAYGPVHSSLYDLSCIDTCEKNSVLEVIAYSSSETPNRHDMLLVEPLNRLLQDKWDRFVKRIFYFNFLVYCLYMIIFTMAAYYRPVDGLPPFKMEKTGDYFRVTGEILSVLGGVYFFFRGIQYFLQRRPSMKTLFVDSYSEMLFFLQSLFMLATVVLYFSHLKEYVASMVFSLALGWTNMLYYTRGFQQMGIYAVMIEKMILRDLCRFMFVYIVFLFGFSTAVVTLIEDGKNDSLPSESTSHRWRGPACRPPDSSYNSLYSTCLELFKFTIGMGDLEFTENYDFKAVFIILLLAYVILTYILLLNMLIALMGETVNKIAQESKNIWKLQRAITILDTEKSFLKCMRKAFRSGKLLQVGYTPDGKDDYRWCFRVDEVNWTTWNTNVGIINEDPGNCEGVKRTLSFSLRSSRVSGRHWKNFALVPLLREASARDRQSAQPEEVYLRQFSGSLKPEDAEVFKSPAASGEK

SMILES | pIC50
CCc1cccc(-c2cc(N3CCN(c4ncccc4Cl)C[C@H]3C)nc(N3CCOCC3)n2)c1 [Example 517, 4-[4-[(2R)-4-(3-chloropyridin-2-yl)-2-methylpiperazin-1-yl]-6-(3-ethylphenyl)pyrimidin-2-yl]morpholine] | ≥ 6.00
Cc1cccnc1N1CCN(c2cc(-c3cccc4ccccc34)nc(N3CCOCC3)n2)[C@H](C)C1 [Example 521, 4-[4-[(2R)-2-methyl-4-(3-methylpyridin-2-yl)piperazin-1-yl]-6-(1-naphthyl)pyrimidin-2-yl]morpholine] | ≥ 6.00
Cc1cccnc1N1CCN(c2cc(-c3ccc(C)c4ccccc34)nc(N3CCOCC3)n2)[C@H](C)C1 [Example 522, 4-[4-[(2R)-2-methyl-4-(3-methylpyridin-2-yl)piperazin-1-yl]-6-(4-methyl-1-naphthyl)pyrimidin-2-yl]morpholine] | ≥ 6.00
COc1cccc(-c2cc(N3CCN(c4ncccc4C#N)C[C@H]3C)nc(N3CCOCC3)n2)c1 [Example 523, 2-{(3R)-4-[6-(3-methoxyphenyl)-2-morpholin-4-ylpyrimidin-4-yl]-3-methylpiperazin-1-yl}nicotinonitrile] | ≥ 6.00
COc1cccc(-c2cc(N3CCN(c4ncccc4Cl)C[C@H]3C)nc(N3CCOCC3)n2)c1 [Example 526, 4-[4-[(2R)-4-(3-chloropyridin-2-yl)-2-methylpiperazin-1-yl]-6-(3-methoxyphenyl)pyrimidin-2-yl]morpholine] | ≥ 6.00
CCOc1cccc(-c2cc(N3CCN(c4ncccc4C)C[C@H]3C)nc(N3CCOCC3)n2)c1 [Example 529, 4-{4-(3-ethoxyphenyl)-6-[(2R)-2-methyl-4-(3-methylpyridin-2-yl)piperazin-1-yl]pyrimidin-2-yl}morpholine] | ≥ 6.00
CCOc1cccc(-c2cc(N3CCN(c4ncccc4Cl)C[C@H]3C)nc(N3CCOCC3)n2)c1 [Example 531, 4-[4-[(2R)-4-(3-chloropyridin-2-yl)-2-methylpiperazin-1-yl]-6-(3-ethoxyphenyl)pyrimidin-2-yl]morpholine] | ≥ 6.00
CSc1cccc(-c2cc(N3CCN(c4ncccc4C#N)C[C@H]3C)nc(N3CCOCC3)n2)c1 [Example 536, 2-((3R)-3-methyl-4-{6-[3-(methylthio)phenyl]-2-morpholin-4-ylpyrimidin-4-yl}piperazin-1-yl)nicotinonitrile] | ≥ 6.00
CSc1cccc(-c2cc(N3CCN(c4ncccc4Cl)C[C@H]3C)nc(N3CCOCC3)n2)c1 [Example 539, 4-{4-[(2R)-4-(3-chloropyridin-2-yl)-2-methylpiperazin-1-yl]-6-[3-(methylthio)phenyl]pyrimidin-2-yl}morpholine] | ≥ 6.00
COc1ccc(-c2cc(N3CCN(c4ncccc4Cl)C[C@H]3C)nc(N3CCOCC3)n2)cc1F [Example 542, 4-[4-[(2R)-4-(3-chloropyridin-2-yl)-2-methylpiperazin-1-yl]-6-(3-fluoro-4-methoxyphenyl)pyrimidin-2-yl]morpholine] | ≥ 6.00
Cc1cccnc1N1CCN(c2cc(-c3cccc(OC(C)C)c3)nc(N3CCOCC3)n2)[C@H](C)C1 [Example 543, 4{4-(3-isopropoxyphenyl)-6-[(2R)-2-methyl-4-(3-methylpyridin-2-yl)piperazin-1-yl]pyrimidin-2-yl}morpholine] | ≥ 6.00
CC(C)Oc1cccc(-c2cc(N3CCN(c4ncccc4Cl)C[C@H]3C)nc(N3CCOCC3)n2)c1 [Example 544, 4-[4-[(2R)-4-(3 chloropyridin-2-yl)-2-methylpiperazin-1-yl]-6-(3-isopropoxyphenyl)pyrimidin-2-yl]morpholine] | ≥ 6.00
Fc1ccc(-c2cc(N3CCN(c4ncccc4C(F)(F)F)CC3)nc(O[C@H]3CCOC3)n2)cc1Cl [Example 545, 4-(3-chloro-4-fluorophenyl)-2-[(3S)-tetrahydrofuran-3-yloxy]-6-{4-[3-(trifluoromethyl)pyridin-2-yl]piperazin-1-yl}pyrimidine] | ≥ 6.00

Other lines, results leading:

pIC50 | SMILES
≥ 6.00 | CCc1cccc(-c2cc(N3CCN(c4ncccc4C)C[C@H]3C)nc(N3CCOCC3)n2)c1 [Example 515, 4-{4-(3-ethylphenyl)-6-[(2R)-2-methyl-4-(3-methylpyridin-2-yl)piperazin-1-yl]pyrimidin-2-yl}morpholine]
≥ 6.00 | CCc1cccc(-c2cc(N3CCN(c4ncccc4C(F)(F)F)C[C@H]3C)nc(N3CCOCC3)n2)c1 [Example 516, 4-(4-(3-ethylphenyl)-6-{(2R)-2-methyl-4-[3-(trifluoromethyl)pyridin-2-yl]piperazin-1-yl}pyrimidin-2-yl)morpholine]
≥ 6.00 | C[C@@H]1CN(c2ncccc2C#N)CCN1c1cc(-c2ccc(C(C)(C)C)cc2)nc(N2CCOCC2)n1 [Example 518, 2-{(3R)-4-[6-(4-tert-butylphenyl)-2-morpholin-4-ylpyrimidin-4-yl]-3-methylpiperazin-1-yl}nicotinonitrile]
≥ 6.00 | C[C@@H]1CN(c2ncccc2C(F)(F)F)CCN1c1cc(-c2ccc(C(C)(C)C)cc2)nc(N2CCOCC2)n1 [Example 519, 4-(4-(4-tert-butylphenyl)-6-{(2R)-2-methyl-4-[3-(trifluoromethyl)pyridin-2-yl]piperazin-1-yl}pyrimidin-2-yl)morpholine]
≥ 6.00 | C[C@@H]1CN(c2ncccc2Cl)CCN1c1cc(-c2ccc(C(C)(C)C)cc2)nc(N2CCOCC2)n1 [Example 520, 4-{4-(4-tert-butylphenyl)-6-[(2R)-4-(3-chloropyridin-2-yl)-2-methylpiperazin-1-yl]pyrimidin-2-yl}morpholine]
≥ 6.00 | COc1cccc(-c2cc(N3CCN(c4ncccc4C)C[C@H]3C)nc(N3CCOCC3)n2)c1 [Example 524, 4-{4-(3-methoxyphenyl)-6-[(2R)-2-methyl-4-(3-methylpyridin-2-yl)piperazin-1-yl]pyrimidin-2-yl}morpholine]
≥ 6.00 | COc1cccc(-c2cc(N3CCN(c4ncccc4C(F)(F)F)C[C@H]3C)nc(N3CCOCC3)n2)c1 [Example 525, 4-(4-(3-methoxyphenyl)-6-{(2R)-2-methyl-4-[3-(trifluoromethyl)pyridin-2-yl]piperazin-1-yl}pyrimidin-2-yl)morpholine]
≥ 6.00 | Cc1cccnc1N1CCN(c2cc(-c3ccc(OC(F)(F)F)cc3)nc(N3CCOCC3)n2)[C@H](C)C1 [Example 527, 4{4[(2R)-2-methyl-4-(3-methylpyridin-2-yl)piperazin-1-yl]-6-[4-(trifluoromethoxy)phenyl]pyrimidin-2-yl}morpholine]
≥ 6.00 | C[C@@H]1CN(c2ncccc2C(F)(F)F)CCN1c1cc(-c2ccc(OC(F)(F)F)cc2)nc(N2CCOCC2)n1 [Example 528, 4-{4-{(2R)-2-methyl-4-(3-(trifluoromethyl)pyridin-2-yl]piperazin-1-yl}-6-[4-(trifluoromethoxy)phenyl]pyrimidin-2-yl}morpholine]
≥ 6.00 | CCOc1cccc(-c2cc(N3CCN(c4ncccc4C(F)(F)F)C[C@H]3C)nc(N3CCOCC3)n2)c1 [Example 530, 4-(4-(3-ethoxyphenyl)-6-{(2R)-2-methyl-4-[3-(trifluoromethyl)pyridin-2-yl]piperazin-1-yl}pyrimidin-2-yl)morpholine]
≥ 6.00 | C[C@@H]1CN(c2ncccc2C#N)CCN1c1cc(-c2cccc(OC(F)(F)F)c2)nc(N2CCOCC2)n1 [Example 532, 2-((3R)-3-methyl-4-{2-morpholin-4-yl-6-[3-(trifluoromethoxy)phenyl]pyrimidin-4-yl}piperazin-1-yl)nicotinonitrile]
≥ 6.00 | Cc1cccnc1N1CCN(c2cc(-c3cccc(OC(F)(F)F)c3)nc(N3CCOCC3)n2)[C@H](C)C1 [Example 533, 4-{4-[(2R)-2-methyl-4-(3-methylpyridin-2-yl)piperazin-1-yl]-6-[3-(trifluoromethoxy)phenyl]pyrimidin-2-yl}morpholine]
≥ 6.00 | C[C@@H]1CN(c2ncccc2C(F)(F)F)CCN1c1cc(-c2cccc(OC(F)(F)F)c2)nc(N2CCOCC2)n1 [Example 534, 4-{4-{(2R)-2-methyl-4-[3-(trifluoromethyl)pyridin-2-yl]piperazin-1-yl}-6-[3-(trifluoromethoxy)phenyl]pyrimidin-2-yl}morpholine]
≥ 6.00 | C[C@@H]1CN(c2ncccc2Cl)CCN1c1cc(-c2cccc(OC(F)(F)F)c2)nc(N2CCOCC2)n1 [Example 535, 4-{4-[(2R)-4-(3-chloropyridin-2-yl)-2-methylpiperazin-1-yl]-6-[3-(trifluoromethoxy)phenyl]pyrimidin-2-yl}morpholine]
≥ 6.00 | CSc1cccc(-c2cc(N3CCN(c4ncccc4C)C[C@H]3C)nc(N3CCOCC3)n2)c1 [Example 537, 4-{4-[(2R)-2-methyl-4-(3-methylpyridin-2-yl)piperazin-1-yl]-6-[3-(methylthio)phenyl]pyrimidin-2-yl}morpholine]
≥ 6.00 | CSc1cccc(-c2cc(N3CCN(c4ncccc4C(F)(F)F)C[C@H]3C)nc(N3CCOCC3)n2)c1 [Example 538, 4-(4-[3-(methylthio)phenyl]-6-{(2R)-2-methyl-4-[3-(trifluoromethyl)pyridin-2-yl]piperazin-1-yl}pyrimidin-2-yl)morpholine]
≥ 6.00 | COc1ccc(-c2cc(N3CCN(c4ncccc4C)C[C@H]3C)nc(N3CCOCC3)n2)cc1F [Example 540, 4-{4-(3-fluoro-4-methoxyphenyl)-6-[(2R)-2-methyl-4-(3-methylpyridin-2-yl)piperazin-1-yl]pyrimidin-2-yl}morpholine]
≥ 6.00 | COc1ccc(-c2cc(N3CCN(c4ncccc4C(F)(F)F)C[C@H]3C)nc(N3CCOCC3)n2)cc1F [Example 541, 4-(4-(3-fluoro-4-methoxyphenyi)-6-{(2R)-2-methyl-4-[3-(trifluoromethyl)pyridin-2-yl]piperazin-1-yl}pyrimidin-2-yl)morpholine]

Source: US7566712B2, “Biaryl piperazinyl-pyridine analogues” (Neurogen Corporation, priority 2003, dated 2009)
